Assay results taken from PubChem BioAssay (NCI).
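How tested: cells in 96-well plates exposed to compound for 48 hours at five concentrations. Abbreviation: GI50, concentration required for 50% inhibition of growth. At the TGI there is no net growth.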

Key:
Experiment in all cases: growth of human tumour cells (NCI), 48 h
HCT-116 colon = test system: HCT-116 colon
M14 melanoma = test system: M14 melanoma
HL-60(TB) leukemia = test system: HL-60(TB) leukemia
TK-10 renal = test system: TK-10 renal
SK-MEL-28 melanoma = test system: SK-MEL-28 melanoma
HOP-92 NSCLC = test system: HOP-92 NSCLC
SR leukemia = test system: SR leukemia
HOP-62 NSCLC = test system: HOP-62 NSCLC
RXF 393 renal = test system: RXF 393 renal

Structure (SMILES)	TGI (HCT-116 colon)	TGI (M14 melanoma)	TGI (HL-60(TB) leukemia)	TGI (TK-10 renal)	TGI (SK-MEL-28 melanoma)	TGI (HOP-92 NSCLC)	TGI (SR leukemia)	TGI (HOP-62 NSCLC)	TGI (RXF 393 renal)	GI50 (HCT-116 colon)	GI50 (M14 melanoma)	GI50 (TK-10 renal)	GI50 (SK-MEL-28 melanoma)	GI50 (HOP-92 NSCLC)	GI50 (HOP-62 NSCLC)	GI50 (HL-60(TB) leukemia)	GI50 (SR leukemia)
NC1C/C(=N\O)c2c(I)sc(I)c21 (configuration not stated)	15.2 µM	30.9 µM	> 100 µM	31.3 µM	32.5 µM	34.5 µM	> 100 µM	34.4 µM	35.8 µM								
O=C1c2ccccc2CC12Cc1cc3c(cc1C2=O)CCC3 (configuration not stated)	> 100 µM	> 100 µM	> 100 µM	> 100 µM	> 100 µM	> 100 µM	> 100 µM	> 100 µM	> 100 µM								
CN1C(c2ccccc2)=CC(=O)C(O)=C(c2ccccc2)S1(=O)=O	> 100 µM	> 100 µM	> 100 µM	> 100 µM	> 100 µM	> 100 µM	> 100 µM	> 100 µM	> 100 µM								
CC[C@@]1(O)C(=O)OCc2c1cc1n(c2=O)Cc2c-1nc1ccccc1c2CC[Si](C)(C)C	0.116 µM	0.0155 µM	> 100 µM		> 100 µM	> 100 µM		0.458 µM	0.371 µM								
O=C(/C=C/c1ccc(O)c(O)c1)OCCc1cccc2ccccc12	14.6 µM	20.3 µM	3.52 µM	13.6 µM	16.9 µM	23.8 µM	5.64 µM		25.1 µM								
CC(=O)C1=C(N=[N+]=[N-])c2cccc3cccc(c23)C1=O	30.8 µM	26.5 µM		36.1 µM		42.8 µM		29.7 µM	28 µM								
Nc1nc(Cl)cc(NCC2(CO)CCC(Cc3ccccc3)C2)n1 (configuration not stated)	> 100 µM	46.6 µM	26.1 µM	> 77 µM	> 100 µM	> 93.8 µM		> 100 µM	> 80.5 µM								
CC(C)CCC1(O)O[C@H]2C[C@H]3[C@@H]4CCC5CC(=O)C=C[C@]5(C)[C@H]4CC[C@]3(C)[C@H]2[C@@H]1C (some centres not stated)	19.3 µM	29.8 µM	17.7 µM	24.2 µM	25 µM	16 µM	22.6 µM	28.4 µM	24.2 µM								
CC(C)OP(=O)(CN(C)/C(F)=N\C(F)(F)F)OC(C)C	> 100 µM	> 100 µM	> 100 µM	> 100 µM	> 100 µM	> 100 µM		> 100 µM	> 100 µM								
CCOP(=O)(/C=C\n1cnc2c(=O)n(C(C)=O)c(N)nc21)OCC	> 100 µM	> 100 µM	> 100 µM	> 100 µM	> 100 µM			> 100 µM	> 100 µM								
NNC(=O)c1c(Cl)c(Cl)c(Cl)c(Cl)c1-c1nc2ccccc2[nH]1	32.6 µM	23.6 µM	38.1 µM	63.2 µM	53.4 µM	43.9 µM	15.6 µM	21.4 µM	21.9 µM								
COC(=O)CC1(CNC(=O)OCc2ccccc2)OCCO1	> 100 µM	> 100 µM	> 100 µM	> 100 µM	> 100 µM	> 100 µM	> 100 µM		> 100 µM								
O=c1[nH]c2ccc(CC(=S)N3CCOCC3)cc2s1	> 100 µM	> 100 µM	> 100 µM	> 100 µM	> 100 µM		> 100 µM	> 100 µM	> 100 µM								
COP(C)(=O)/C(Cc1ccccc1)=N\O (configuration not stated)	> 100 µM	> 100 µM	> 100 µM	> 100 µM	> 100 µM	> 100 µM	> 100 µM	> 100 µM									
O=C(CSc1nc(=O)[nH]c2nc[nH]c12)Nc1ccccc1	> 100 µM	> 100 µM	> 100 µM	> 100 µM	> 100 µM	> 100 µM	> 100 µM	> 100 µM	> 100 µM								
COC(=O)C(CCC1C=CCC1)N=Cc1ccccc1 (configuration not stated)	> 100 µM	> 100 µM	> 100 µM	> 100 µM	> 100 µM	> 100 µM	> 100 µM	> 100 µM	> 100 µM								
CC(=O)O[C@H]1C[C@]2(C)C(CCC3O[C@@]32C)[C@@]2(CC(c3ccoc3)OC2O)[C@@H]1C (some centres not stated)	> 100 µM	> 100 µM	52 µM	> 100 µM	> 100 µM	> 100 µM	> 100 µM		> 100 µM								
Cc1csc2nc(-c3ccc([N+](=O)[O-])cc3)c(/C=N/N=C(N)N)n12	3.76 µM	3.41 µM	4.49 µM	3.9 µM	3.23 µM	2.22 µM		3.28 µM	3.45 µM								
CCOc1ccc2c(c1)/C(=C(\C(Cl)=C(Cl)Cl)[N+](=O)[O-])N2	> 100 µM	> 100 µM			> 100 µM			> 100 µM									
O=C1OCC(C#Cc2ccccc2)=C1Cl	1.38 µM	16.4 µM		6.38 µM	5.16 µM	6.84 µM		1.7 µM		0.322 µM	3.88 µM	1.61 µM	1.7 µM	2.14 µM	0.388 µM		
CC(=O)O[C@H]1CC[C@]2(C)[C@H]3CC[C@@H]4[C@H]5[C@H](C(C)C)CC[C@]5(C(=O)OCC(CO)(CO)N=C(N)N)CC[C@@]4(C)[C@]3(C)CC[C@H]2C1(C)C			4.26 µM	3.12 µM		2.93 µM	4.61 µM	3.56 µM				1.67 µM		1.48 µM	1.82 µM	1.79 µM	2.11 µM
CC[N+]1(C)CCC(O)(c2ccc(Cl)cc2)C(C(=O)c2ccc(Cl)cc2)C1 (configuration not stated)	46.7 µM	36.2 µM	> 100 µM	34.1 µM	29.4 µM		36.4 µM	46.8 µM	27.4 µM								
O=C1C2C=CC1C1C(=O)OC(=O)C21 (configuration not stated)	> 100 µM	> 100 µM	> 100 µM	> 100 µM	> 100 µM	> 100 µM	> 100 µM	> 100 µM									
Cc1cc2[nH]c3c(C#N)c(-c4ccccc4)c(N=Nc4cccc(C(F)(F)F)c4)c(=O)n3c2cc1C	> 100 µM	> 100 µM		> 100 µM	> 100 µM			> 100 µM	> 100 µM								
CCOP(=O)(Nc1ccc(-c2ccccc2)cc1)OCC	> 100 µM	> 100 µM		> 100 µM	> 100 µM	> 100 µM		> 100 µM	> 100 µM								
